Key:
JAK1 = JAK1 (Homo sapiens (Human), UniProt P23458); assay: Biochemical JAK and Tyk2 Kinase Assays (LanthaScreen), JAK1; details: 25 μM ATP (Km); pIC50 converted to pKi by Cheng-Prusoff
Description: (§1) Assay 1: Biochemical JAK and Tyk2 Kinase Assays
(§2) A panel of four LanthaScreen JAK biochemical assays (JAK1, 2, 3 and Tyk2) were carried in a common kinase reaction buffer (50 mM HEPES, pH 7.5, 0.01% Brij-35, 10 mM MgCl2, and 1 mM EGTA). Recombinant GST-tagged JAK enzymes and a GFP-tagged STAT1 peptide substrate were obtained from Life Technologies.
(§3) Serially or discretely diluted compounds were pre-incubated with each of the four JAK enzymes and the substrate in white 384-well microplates (Corning) at ambient temperature for 1 h. ATP was subsequently added to initiate the kinase reactions in 10 μL total volume, with 1% DMSO. The final enzyme concentrations for JAK1, 2, 3 and Tyk2 are 4.2 nM, 0.1 nM, 1 nM, and 0.25 nM respectively; the corresponding Km ATP concentrations used are 25 μM, 3 μM, 1.6 μM, and 10 μM; while the substrate concentration is 200 nM for all four assays. Kinase reactions were allowed to proceed for 1 hour at ambient temperature before a 10 μL preparation of EDTA (10 mM final concentration) and Tb-anti-pSTAT1 (pTyr701) antibody (Life Technologies, 2 nM final concentration) in TR-FRET dilution buffer (Life Technologies) was added. The plates were allowed to incubate at ambient temperature for 1 h before being read on the EnVision reader (Perkin Elmer). Emission ratio signals (520 nm/495 nm) were recorded and utilized to calculate the percent inhibition values based on DMSO and background controls.
(§4) For dose-response analysis, percent inhibition data were plotted vs. compound concentrations, and IC50 values were determined from a 4-parameter robust fit model with the Prism software (GraphPad Software). Results were expressed as pIC50 (negative logarithm of IC50) and subsequently converted to pKi (negative logarithm of dissociation constant, Ki) using the Cheng-Prusoff equation.

JAK3 = JAK3 (Homo sapiens (Human), UniProt P52333); assay: Biochemical JAK and Tyk2 Kinase Assays (LanthaScreen), JAK3; details: 1.6 μM ATP (Km); pIC50 converted to pKi by Cheng-Prusoff
Description: as §1, §2, §3, §4

Aqueous Solubility Assay = details: PBS buffer pH 7.4; maximum upper limit 1,000 μM
[1] = system: IL-2 stimulated pSTAT5 in Tall-1 T cells; assay: Inhibition of IL-2 Stimulated pSTAT5 in Tall-1 T Cells; type: cell-based; details: Tall-1 human T cell line, IL-2 300 ng/mL, AlphaLisa
Description: Assay 2: Inhibition of IL-2 Stimulated pSTAT5 in Tall-1 T Cells
The potency of test compounds for inhibition of interleukin-2 (IL-2) stimulated STATS phosphorylation was measured in the Tall-1 human T cell line (DSMZ) using AlphaLisa. Because IL-2 signals through JAK1/3, this assay provides a measure of JAK1/3 cellular potency.
Phosphorylated STATS was measured via the AlphaLISA SureFire Ultra pSTAT5 (Tyr694/699) kit (PerkinElmer). Human T cells from the Tall-1 cell line were cultured in a 37° C., 5% CO2 humidified incubator in RPMI (Life Technologies) supplemented with 15% Heat Inactivated Fetal Bovine Serum (FBS, Life Technologies), 2 mM Glutamax (Life Technologies), 25 mM HEPES (Life Technologies) and 1× Pen/Strep (Life Technologies). Compounds were serially diluted in DMSO and dispensed acoustically to empty wells. Assay media (phenol red-free DMEM (Life Technologies) supplemented with 10% FBS (ATCC)) was dispensed (4 μL/well) and plates shaken at 900 rpm for 10 mins. Cells were seeded at 45,000 cells/well in assay media (4 μL/well), and incubated at 37° C., 5% CO2 for 1 hour, followed by the addition of IL-2 (R&D Systems; final concentration 300 ng/mL) in pre-warmed assay media (4 μL) for 30 minutes. After cytokine stimulation, cells were lysed with 6 ul of 3× AlphaLisa Lysis Buffer (PerkinElmer) containing 1× PhosStop and Complete tablets (Roche). The lysate was shaken at 900 rpm for 10 minutes at room temperature (RT). Phosphorylated STATS was measured via the pSTAT5 AlphaLisa kit (PerkinElmer). Freshly prepared acceptor bead mixture was dispensed onto lysate (51) under green filtered <100 lux light. Plates were shaken at 900 rpm for 2 mins, briefly spun down, and incubated for 2 hrs at RT in the dark. Donor beads were dispensed (5 μL) under green filtered <100 lux light. Plates were shaken at 900 rpm for 2 minutes, briefly spun down, and incubated overnight at RT in the dark. Luminescence was measured with excitation at 689 nm and emission at 570 nm using an EnVision plate r reader (PerkinElmer) under green filtered <100 lux light.
To determine the inhibitory potency of test compounds in response to IL-2, the average emission intensity of beads bound to pSTAT5 was measured in a human T cell line. IC50 values were determined from analysis of the inhibition curves of signal intensity versus compound concentration. Data are expressed as pIC50 (negative decadic logarithm IC50) values (mean±standard deviation).

[2] = Solubility Assay in Organic Excipients; details: maximum upper limit 20,000 μM; for Solubility in MCT (mg/mL): medium chain triglycerides (MCT)
Description: Assay 6: Solubility Assay in Organic Excipients
The purpose of this assay was to quantify the solubility of test compounds in different organic excipients such as diisopropyl adipate, medium chain triglycerides (MCT), propylene glycol, and polyethylene glycol. The assay required 80 μL of 100 mM DMSO test compound solution per desired excipient in addition to 40 μL required to make a test standard.
The standard was created by diluting 40 μL of 100 mM DMSO compound stock solution into 160 μL of methanol and was shaken for five minutes to ensure solution uniformity. […] This 20,000 μM solution was run on an Agilent 1260 LC-MS system by injecting 0.2 μL in order to obtain the peak area. For the test solutions, 80 μL of 100 mM DMSO compound stock solution, per excipient, were dried down into a powder overnight. Once in powder form, 400 μL of the desired excipient was added to the powder and allowed to shake vigorously for four hours. The maximum theoretical concentration for this sample solution was 20,000 μM. After four hours of shaking, the samples were centrifuged for 10 minutes at 3,000 RPM before injecting 0.2 μL on the same Agilent 1260 LC-MS system to obtain the peak area.

Chain of JAK3 (P52333 whole entry): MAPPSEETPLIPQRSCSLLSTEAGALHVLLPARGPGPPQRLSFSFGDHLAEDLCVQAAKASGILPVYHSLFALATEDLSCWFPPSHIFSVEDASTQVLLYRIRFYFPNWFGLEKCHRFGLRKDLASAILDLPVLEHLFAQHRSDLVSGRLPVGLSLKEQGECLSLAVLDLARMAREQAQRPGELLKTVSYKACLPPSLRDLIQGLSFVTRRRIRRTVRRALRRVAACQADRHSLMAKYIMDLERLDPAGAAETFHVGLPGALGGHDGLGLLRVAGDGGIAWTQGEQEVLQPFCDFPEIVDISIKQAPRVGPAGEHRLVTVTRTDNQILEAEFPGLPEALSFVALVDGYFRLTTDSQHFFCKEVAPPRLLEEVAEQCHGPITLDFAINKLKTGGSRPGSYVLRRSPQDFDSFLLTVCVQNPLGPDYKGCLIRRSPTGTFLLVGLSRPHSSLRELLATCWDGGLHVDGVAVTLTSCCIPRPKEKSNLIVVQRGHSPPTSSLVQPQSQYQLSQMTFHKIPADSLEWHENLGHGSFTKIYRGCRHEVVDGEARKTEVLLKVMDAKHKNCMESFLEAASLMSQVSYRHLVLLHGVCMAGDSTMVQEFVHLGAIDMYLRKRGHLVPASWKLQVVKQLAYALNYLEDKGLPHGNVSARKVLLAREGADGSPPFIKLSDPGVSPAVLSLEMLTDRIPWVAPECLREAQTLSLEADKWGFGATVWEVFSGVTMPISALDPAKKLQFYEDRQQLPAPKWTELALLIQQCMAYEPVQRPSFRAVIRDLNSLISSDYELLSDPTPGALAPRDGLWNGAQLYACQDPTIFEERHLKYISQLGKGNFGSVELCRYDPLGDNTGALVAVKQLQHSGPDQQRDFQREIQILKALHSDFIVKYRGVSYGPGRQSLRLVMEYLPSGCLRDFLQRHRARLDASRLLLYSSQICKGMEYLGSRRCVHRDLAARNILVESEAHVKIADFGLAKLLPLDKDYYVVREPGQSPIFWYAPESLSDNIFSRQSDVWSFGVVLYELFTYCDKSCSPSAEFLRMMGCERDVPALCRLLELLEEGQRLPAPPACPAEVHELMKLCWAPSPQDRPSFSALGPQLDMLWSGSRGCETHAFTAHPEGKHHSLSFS
Chain of JAK1 (P23458 whole entry): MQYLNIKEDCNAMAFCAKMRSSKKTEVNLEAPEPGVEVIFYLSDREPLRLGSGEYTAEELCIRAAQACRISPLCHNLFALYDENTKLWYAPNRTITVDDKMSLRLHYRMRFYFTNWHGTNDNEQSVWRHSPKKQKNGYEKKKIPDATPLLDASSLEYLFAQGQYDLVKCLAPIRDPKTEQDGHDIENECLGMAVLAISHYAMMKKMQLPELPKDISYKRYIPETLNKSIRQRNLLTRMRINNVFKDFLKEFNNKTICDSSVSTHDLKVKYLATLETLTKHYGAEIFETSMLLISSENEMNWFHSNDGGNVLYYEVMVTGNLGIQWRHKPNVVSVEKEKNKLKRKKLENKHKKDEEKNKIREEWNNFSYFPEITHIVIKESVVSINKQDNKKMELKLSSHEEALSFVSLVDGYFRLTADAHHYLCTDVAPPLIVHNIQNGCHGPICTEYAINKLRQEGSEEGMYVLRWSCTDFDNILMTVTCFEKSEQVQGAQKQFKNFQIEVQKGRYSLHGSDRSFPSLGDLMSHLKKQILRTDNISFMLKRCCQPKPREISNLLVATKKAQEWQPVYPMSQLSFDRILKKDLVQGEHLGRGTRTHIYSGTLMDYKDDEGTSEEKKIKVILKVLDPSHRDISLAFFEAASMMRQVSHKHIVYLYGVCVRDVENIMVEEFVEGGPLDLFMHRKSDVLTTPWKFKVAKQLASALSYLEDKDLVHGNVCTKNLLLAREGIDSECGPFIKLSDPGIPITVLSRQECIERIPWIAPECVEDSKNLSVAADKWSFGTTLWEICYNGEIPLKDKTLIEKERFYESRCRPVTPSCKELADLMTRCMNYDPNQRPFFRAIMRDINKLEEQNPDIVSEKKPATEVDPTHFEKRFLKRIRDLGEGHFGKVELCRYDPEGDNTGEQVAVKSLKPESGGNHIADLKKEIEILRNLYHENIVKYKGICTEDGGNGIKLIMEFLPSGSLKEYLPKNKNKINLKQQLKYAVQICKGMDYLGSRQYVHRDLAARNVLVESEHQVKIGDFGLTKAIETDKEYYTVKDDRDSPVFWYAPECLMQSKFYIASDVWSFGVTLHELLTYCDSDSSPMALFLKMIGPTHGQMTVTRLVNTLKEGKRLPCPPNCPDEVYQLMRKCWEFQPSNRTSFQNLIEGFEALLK

Structure (SMILES) | JAK 1 (pKi) (JAK1) | JAK 3 (pKi) (JAK3) | Solubility at PH 7.4 (μmol) (Aqueous Solubility Assay) | Tall-1 IL2 pSTAT5 (pIC50) [1] | Solubility in PEG400 (mg/mL) [2] | Solubility in Diisopropyl adipate (mg/mL) [2] | Solubility in MCT (mg/mL) [2] | Solubility in Propylene glycol (mg/mL) [2]
COC(=O)N1[C@@H]2CCC[C@H]1C[C@H](N(C)c1nc(Nc3cc(C)[nH]n3)cc(C3CCOCC3)n1)C2 [Compound 3, methyl (1R,3s,5S)-3-(methyl(4-((5-methyl-1H-pyrazol-3-yl)amino)-6-(tetrahydro-2H-pyran-4-yl)pyrimidin-2-yl)amino)-9-azabicyclo[3.3.1]nonane-9-carboxylate] | B (B represents a pKi value between 9 and 10 (Ki between 1 nM and 0.1 nM)) | B (B represents a pKi value between 9 and 10 (Ki between 1 nM and 0.1 nM)) | E (E represents a value below 10) | A (A represents a pIC50 value ≥8.0) | C (C represents a value below 5) | C (C represents a value below 5) | C (C represents a value below 5) | C (C represents a value below 5)
CCC(=O)N1[C@@H]2CCC[C@H]1C[C@H](N(C)c1nc(Nc3cc(C)[nH]n3)cc(O[C@@H]3CCOC3)n1)C2 [Compound 17, 1-((1R,3s,5S)-3-(methyl(4-((5-methyl-1H-pyrazol-3-yl)amino)-6-(((R)-tetrahydrofuran-3-yl)oxy)pyrimidin-2-yl)amino)-9-azabicyclo[3.3.1]nonan-9-yl)propan-1-one] | B (B represents a pKi value between 9 and 10 (Ki between 1 nM and 0.1 nM)) | C (C represents a pKi value between 8 and 9 (Ki between 10 nM and 1 nM)) | D (D represents a value between 10 and 50) | A (A represents a pIC50 value ≥8.0) | B (B represents a value between 5 and 10) | A (A represents a value above 10) | C (C represents a value below 5) | A (A represents a value above 10)
CCC(=O)N1[C@@H]2CCC[C@H]1CC(N(C)c1nc(Nc3cc(C)[nH]n3)cc(OC3CCOC3)n1)C2 (stereo partly drawn) [Compound 46, 1-((1R,3s,5S)-3-(methyl(4-((5-methyl-1H-pyrazol-3-yl)amino)-6-((tetrahydrofuran-3-yl)oxy)pyrimidin-2-yl)amino)-9-azabicyclo[3.3.1]nonan-9-yl)propan-1-one] | A (A represents a pKi value ≥10 (Ki≤0.1 nM)) | B (B represents a pKi value between 9 and 10 (Ki between 1 nM and 0.1 nM)) | D (D represents a value between 10 and 50) | A (A represents a pIC50 value ≥8.0) | – | – | – | –
CCS(=O)(=O)N1[C@@H]2CCC[C@H]1C[C@H](N(C)c1nc(Nc3cc(C)[nH]n3)cc(O[C@@H]3CCOC3)n1)C2 [Compound 18, N^2-((1R,3s,5S)-9-(ethylsulfonyl)-9-azabicyclo[3.3.1]nonan-3-yl)-N2-methyl-N4-(5-methyl-1H-pyrazol-3-yl)-6-(((R)-tetrahydrofuran-3-yl)oxy)pyrimidine-2,4-diamine] | A (A represents a pKi value ≥10 (Ki≤0.1 nM)) | B (B represents a pKi value between 9 and 10 (Ki between 1 nM and 0.1 nM)) | D (D represents a value between 10 and 50) | – | B (B represents a value between 5 and 10) | B (B represents a value between 5 and 10) | C (C represents a value below 5) | B (B represents a value between 5 and 10)
Cc1cc(Nc2cc(C3CCOC3)nc(N(C)[C@@H]3C[C@H]4CCC[C@@H](C3)N4C(=O)CC3CC3)n2)n[nH]1 (stereo partly drawn) [Compound 7, 2-cyclopropyl-1-((1R,3s,5S)-3-(methyl(4-((5-methyl-1H-pyrazol-3-yl)amino)-6-(tetrahydrofuran-3-yl)pyrimidin-2-yl)amino)-9-azabicyclo[3.3.1]nonan-9-yl)ethan-1-one] | A (A represents a pKi value ≥10 (Ki≤0.1 nM)) | C (C represents a pKi value between 8 and 9 (Ki between 10 nM and 1 nM)) | E (E represents a value below 10) | A (A represents a pIC50 value ≥8.0) | – | – | – | –
Cc1cc(Nc2cc(C3CCOCC3)nc(N(C)[C@@H]3C[C@H]4CCC[C@@H](C3)N4C(=O)CC3CC3)n2)n[nH]1 [Compound 4, 2-cyclopropyl-1-((1R,3s,5S)-3-(methyl(4-((5-methyl-1H-pyrazol-3-yl)amino)-6-(tetrahydro-2H-pyran-4-yl)pyrimidin-2-yl)amino)-9-azabicyclo[3.3.1]nonan-9-yl)ethan-1-one] | A (A represents a pKi value ≥10 (Ki≤0.1 nM)) | B (B represents a pKi value between 9 and 10 (Ki between 1 nM and 0.1 nM)) | E (E represents a value below 10) | – | C (C represents a value below 5) | C (C represents a value below 5) | C (C represents a value below 5) | C (C represents a value below 5)
Cc1cc(Nc2cc(OCC3COC3)nc(N(C)[C@@H]3C[C@H]4CCC[C@@H](C3)N4C(=O)CC3CC3)n2)n[nH]1 [Compound 40, 2-cyclopropyl-1-((1R,3s,5S)-3-(methyl(4-((5-methyl-1H-pyrazol-3-yl)amino)-6-(oxetan-3-ylmethoxy)pyrimidin-2-yl)amino)-9-azabicyclo[3.3.1]nonan-9-yl)ethan-1-one] | A (A represents a pKi value ≥10 (Ki≤0.1 nM)) | B (B represents a pKi value between 9 and 10 (Ki between 1 nM and 0.1 nM)) | D (D represents a value between 10 and 50) | A (A represents a pIC50 value ≥8.0) | – | – | – | –

Reference: patent publication US11439641B2, “Pyrimidine JAK inhibitors for the treatment of skin diseases” (THERAVANCE BIOPHARMA R&D IP, LLC, priority 2019, dated 2022)
